In series [1] the test system is CYP509C12. In words: Steroid hydroxylation assay of recombinant S. pombe strain SpoC12 expressing CYP509C12 (whole-cell biotransformation, HPLC and LC/MS). As to conditions: for efficiency of total steroid hydroxylation: 28 °C. The method, then:
S. pombe cells, grown as described in the previous section, were washed with EMM, centrifuged (4000 × g, 5 min, 4 °C) and suspended in 10 mL of fresh medium to a final density of 10^8 cells mL^-1. […] 500 µL of SpoC12 yeast culture was taken after different time periods and the steroids were extracted twice with chloroform, evaporated, solved in acetonitrile, and analyzed by HPLC. The steroid extracts from whole cell cultures growing for 24 h were analyzed by LC/MS.
Reverse phase HPLC using an isocratic solvent system of acetonitrile:H2O 60:40 (v/v) as mobile phase, flow rate […], was carried out on a WellChrom system (Knauer, Berlin, Germany) composed of an auto-sampler AS-2050 plus, Mini-Star K-500 pump, Jet Stream II Plus thermostat, and an UV-detector WellChrom Spectro Photometer K-2600, equipped with a C18 ODS Hypersil 250 x 4.6 mm, 5 µm particle column from Thermo® (Waltham, MA, USA). Steroids were detected at 240 nm and the peak area calculation was done using the EuroChrom 2000 software (Knauer). Steroid standards were used to identify the HPLC peaks and to construct calibration curves. Concentrations of steroids were determined using calibration curves in the range of 0.05 -1 mg mL^-1 of each analyte. […] The peak area of a specific steroid at each time point was assessed relative to the total area of identified steroid peaks.
Mass measurements were run on a hybrid quadruple time of flight mass spectrometer (Q-TOF) provided with an orthogonal Z-spray ESI interface (Waters Micromass, Manchester, UK). Mass spectrometer was interfaced to an ultra performance liquid chromatography (UPLC) system based on a Waters Acquity (Waters, Milford, USA) binary pump with a BEH C-18 column (1.7 µm, 50 mm x 2.1 mm i.d.). The mobile phases consisted of water and acetonitrile with mixture of 0.1 % of formic acid in water. Compressed nitrogen (99.999 %, Messer, Slovenia) was used as both the drying and the nebulizing gas. The nebulizer gas flow rate was set to approximately 20 L h^-1 and the desolvation gas flow rate to 600 L h^-1. A cone voltage of 30 V and a capillary voltage of 2.7 kV were used in positive ion mode. The desolvation temperature was set to 250 °C and the source temperature to 150 °C. The mass resolution of approximately 9500 was used for determination of elemental composition with TOF mass spectrometer. Full width of the peak was measured at half of its maximum height. MS were acquired in centroid mode over an m/z range of 50-1000 in scan time 0.25 s and inter scan time 0.05 s. The data station operating software was Mass Lynx v 4.1 (Micromass, Manchester).

Series [2] deals with CYP509C10. As to conditions: 300 µM progesterone, up-regulated within 20 minutes, Wilcoxon's test p value < 0.05.
Procedure: (§1) Samples of 2 µg of RNA were treated with DNAse 1 and reverse-transcribed with random hexamer primers using RevertAid™ H Minus First Strand cDNA Synthesis Kit (Fermentas, Canada) following the manufacturer's instructions. Based on multiple alignments of deduced P450 families, the amplification of the cDNA of 31 P450 genes was carried out under conventional conditions using gene-specific primers which were designed with Primer Express (Applied Biosystems, CA, USA, (AB)). The specificity of each primer pair was verified by sequencing of amplified genomic fragments (Sequiserve, Vaterstetten, Germany).
(§2) Quantitative RT PCR using SYBR green Mastermix (AB) was performed for 9 selected genes in an ABI Prism 7500 Real Time System (AB) according to the manufacturer's instructions. Following amplification, a dissociation curve was performed on all PCR products to additionally ensure their specificity. The relative quantity of cDNA was calculated with the standard curve method and calibrated with a R. oryzae housekeeping Rossb1 gene (Broad ref. RO3G_01864.1), a homologue of the Saccharomyces cerevisiae ribosome-associated Hsp70 (SSB1), whose expression is not affected by steroid treatment. The expression levels of each P450 gene were normalized to those in the untreated control. The statistical significance of up- or down-regulation was evaluated using Wilcoxon's test with a cutoff p-value < 0.05.
In series [3] the test system is CYP5204A1. In words: Real time RT PCR of P450 gene expression in fungus exposed to progesterone. As to conditions: 300 µM progesterone, up-regulated within 20 minutes, Wilcoxon's test p value < 0.05. It counts as cell-based, R. oryzae.
Procedure: as §1, §2
The subject of series [4] is CYP509C12. The description is as above. In kind it is cell-based, R. oryzae. The conditions noted are these: 300 µM progesterone, up-regulated within 20 minutes, Wilcoxon's test p value < 0.05.
Procedure: as §1, §2
[5] abbreviates: SpoC12, 300 µM steroid, 24 h, LC/MS.

Molecules are shown by their SMILES.

Take `C[C@]12CC[C@H]3[C@@H](CCC4=CC(=O)CC[C@@]43C)[C@@H]1CC[C@@H]2C(=O)CO` [DOC, 11-deoxycorticosterone]: the “efficiency of total steroid hydroxylation” value (from here on “efficiency”) in series [1] (setting [5]) worked out at 96%.

In the case of `CC(=O)[C@H]1CC[C@H]2[C@@H]3CCC4=CC(=O)CC[C@]4(C)[C@H]3CC[C@]12C` [progesterone], the “transcript amount increase compared to the control” value in series [2], in series [3] and in series [4] was “at least 32 fold” in each case. Further, in series [1] (SpoC12 versus R. oryzae cultures), the “slower rate of progesterone hydroxylation in recombinant fission yeast compared to R. oryzae cultures” value worked out at 10 fold.

For the compound `C[C@]12CCC(=O)C=C1CC[C@@H]1[C@@H]2CC[C@@]2(C)[C@H]1CC[C@]2(O)C(=O)CO` [RSS, 11-deoxycortisol], in series [1] (setting [5]), the “efficiency” value came to 30% and the “share of 6β-hydroxylated derivative in total hydroxylated products” value is recorded as “more than half”.

Turning to `C[C@]12CC[C@H]3[C@@H](CCC4=CC(=O)CC[C@@]43C)[C@@H]1CC[C@@H]2O` [testosterone], the “efficiency” value in series [1] (setting [5]) is 73%.

(Values after patent publication EP2308983B1, “Cytochrome P450 from Rhizopus oryzae and uses thereof” (Univerza v Ljubljani, priority 2009, dated 2011).)
